5 compounds from the supplement of paper PMC11061612 can be followed below.

Assay [1] deals with SK-HEP-1 (Hepatocellular Carcinoma). Nature of the assay: Bliss excess, mean over the matrix (fraction); higher = more synergy. Put shortly: (§1)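 After 24 hours at 37°C and 5% CO2 in 1536-well plates, cells in DMEM/F12 or RPMI plus 10% FBS received two-drug dose matrices for 72 hours. Viability came from CellTiter-Glo 2.0 luminescence and was scaled as inhibition, anchored at 0 by vehicle wells and at 1 by blank wells. Combination Emax is taken as the second-highest inhibition in the matrix, and Bliss excess as the observed combination effect less EA + EB − EA·EB, with EA and EB the single-agent effects.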

Assay [2] deals with UACC-812 (Breast Carcinoma). Described as above. Put shortly:
as §1

The test system of assay [3] is CGTH-W-1 (Thyroid Gland Carcinoma). The description is as above. Put shortly:
as §1

Assay [4] has as its system A2780 (Ovarian Carcinoma). The description is as above. Put shortly:
as §1

The test system of assay [5] is NCI-H441 (Lung Adenocarcinoma). The assay is described as above. In a few lines: as §1
In assay [6] the test system is MHH-ES-1 (Ewing's Sarcoma). The assay is described as above. Put shortly: as §1
Assay [7] concerns SW620 (Colorectal Carcinoma). The assay is described as above. Put shortly:
as §1

Assay [8] relates to LU-165 (Small Cell Lung Carcinoma). Described as above. Put shortly: as §1
Assay [9] deals with JHH-2 (Hepatocellular Carcinoma). The assay is described as above. In a few lines:
as §1

Another assay has as its system HCC70 (Breast Carcinoma). The assay is described as above. In a few lines:
as §1

The next assay has as its system EB2 (Burkitt's Lymphoma). The description is as above. Put shortly:
as §1

For assay [10], the system named is 22RV1 (Prostate Carcinoma). The assay is described as above. Put shortly: as §1
The test system of assay [11] is HCC1395 (Breast Carcinoma). Described as above. In a few lines: as §1
The test system of assay [12] is PEO1 (Ovarian Carcinoma). The assay is described as above. In a few lines: as §1
In assay [13] the test system is MDA-MB-436 (Breast Carcinoma). The description is as above. Put shortly: as §1
Assay [14] deals with NCI-H1703 (Squamous Cell Lung Carcinoma). The assay is described as above. In a few lines: as §1
Another assay deals with WM1552C (Melanoma). The description is as above. In a few lines:
as §1

The test system of assay [15] is KYSE-220 (Esophageal Squamous Cell Carcinoma). Kind of assay: combination Emax (second highest fraction inhibited in the dose matrix, 72 h); higher = more inhibition; extreme values may be limits of the assay. Put shortly:
as §1

Assay [16] deals with PEO1 (Ovarian Carcinoma). The description is as above. In a few lines:
as §1

The test system of assay [17] is MDA-MB-436 (Breast Carcinoma). Described as above. In a few lines: as §1
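Wherever Bliss excess, mean over the matrix is given: after 72 h of two-drug dosing.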

`COc1cc2c(cc1OCCCCCOc1cc3c(cc1OC)C(=O)N1C=C(C)C[C@H]1C=N3)N=C[C@@H]1CC(C)=CN1C2=O` [SG3199] + O=C(c1cc(Cc2n[nH]c(=O)c3ccccc23)ccc1F)N1CCN(C(=O)C2CC2)CC1 [Olaparib] (first compound max 0.001 µM, 7x7, partner max 10 µM): the Bliss excess in assay [1] is -0.0582; in assay [2], -0.0377; in assay [3] it was -0.0332; in assay [4] it was -0.0404; in assay [5], -0.0871; in [6], -0.0454. For the same compound, the Bliss excess was -0.0303 in [7]; -0.0532 in [8]; -0.0244 in assay [9]; -0.0252 in the assay with HCC70 (Breast Carcinoma); -0.0259 in the assay on EB2 (Burkitt's Lymphoma); -0.0421 in assay [10]. Besides, the Bliss excess is -0.0449 in assay [11]; -0.0397 with PEO1 (Ovarian Carcinoma) [12]; -0.0412 in [13]; -0.0451 in [14]; -0.0462 with WM1552C (Melanoma). The “combination Emax” value was found to be 0.119 in assay [15], 0.0793 in the assay on PEO1 (Ovarian Carcinoma) [16] and 0.121 in [17].
With `Cc1cc2ncnn2cc1Nc1ncc2c(n1)n(C1CCOCC1)c(=O)n2C` [AZD7648] + C=CCn1c(=O)c2cnc(Nc3ccc(N4CCN(C)CC4)cc3)nc2n1-c1cccc(C(C)(C)O)n1 [AZD1775] (first compound max 10 µM, partner max 1 µM), the Bliss excess was 0.0387 in [1]; -0.0446 in assay [2]; 0.0025 in assay [3]; 0.0088 in [4]; 0.0059 in assay [5]; -0.0116 in assay [6]. Further, the Bliss excess was -0.0206 in assay [7]; 0.0491 in [8]; -0.0469 in [9]; 0.0731 in the assay with HCC70 (Breast Carcinoma); -0.0857 in the assay on EB2 (Burkitt's Lymphoma); -0.0214 in [10]. Further, the Bliss excess in assay [11] is -0.0571; in the assay on PEO1 (Ovarian Carcinoma) [12], 0.0164; in assay [13], -0.0189; in assay [14] it was -0.0283; in the assay on WM1552C (Melanoma), -0.0111. In addition, the “combination Emax” value in assay [15] turned out to be 0.882; in the assay on PEO1 (Ovarian Carcinoma) [16], 0.439; in assay [17], 0.362.
With `C[C@@H](c1ccc2nccn2c1)n1nnc2ncc(-c3cnn(C)c3)nc21` [Savolitinib] + CC1(C)CCC(CN2CCN(c3ccc(C(=O)NS(=O)(=O)c4ccc(NCC5CCOCC5)c([N+](=O)[O-])c4)c(Oc4cnc5[nH]ccc5c4)c3)CC2)=C(c2ccc(Cl)cc2)C1 [Venetoclax] (first compound max 1 µM, 7x7, partner max 1 µM), the Bliss excess is -0.0267 in assay [1]; -0.043 in assay [2]; -0.0378 in [3]; -0.0843 in [4]; -0.029 in assay [5]; -0.031 in assay [6]. The Bliss excess in assay [7] is -0.0727; in [8], -0.0126; in [9], -0.0705; with HCC70 (Breast Carcinoma), -0.0361; in the assay with EB2 (Burkitt's Lymphoma), -0.0391; in assay [10] it was -0.0952. For the same compound, the Bliss excess in [11] was -0.0095; in the assay on PEO1 (Ovarian Carcinoma) [12] it was -0.0441; in assay [13], -0.0228; in [14], -0.015; in the assay with WM1552C (Melanoma), -0.0623. Also, the results for the “combination Emax” value (in assay [15]; in the assay on PEO1 (Ovarian Carcinoma) [16]; in assay [17]) were 0.146, 0.219 and 0.28, respectively.
In the case of `Cc1cc2ncnn2cc1Nc1ncc2c(n1)n(C1CCOCC1)c(=O)n2C` [AZD7648] + C[C@@H]1COCCN1C2=NC(=NC(=C2)C3(CC3)[S@](=N)(=O)C)C4=C5C=CNC5=NC=C4 [AZD6738] (first compound max 10 µM, 7x7, partner max 10 µM), the Bliss excess in assay [1] was found to be 0.0239; in assay [2], 0.0254; in assay [3], 0.0191; in assay [4] it was 0.0061; in assay [5], 0.0095; in [6], 0.0275. In addition, the Bliss excess is 0.0264 in [7]; 0.0351 in assay [8]; -0.073 in [9]; -0.0058 in the assay on HCC70 (Breast Carcinoma); -0.0604 with EB2 (Burkitt's Lymphoma); -0.0179 in [10]. The Bliss excess was 0.0361 in [11]; -0.0121 with PEO1 (Ovarian Carcinoma) [12]; 0.0316 in assay [13]; 0.0089 in [14]; 0.0143 with WM1552C (Melanoma). Besides, the results for the “combination Emax” value (in assay [15]; in the assay on PEO1 (Ovarian Carcinoma) [16]; in assay [17]) were 0.91, 0.482 and 0.362, respectively.
Consider `Cc1cc2ncnn2cc1Nc1ncc2c(n1)n(C1CCOCC1)c(=O)n2C` [AZD7648] + O=C(c1cc(Cc2n[nH]c(=O)c3ccccc23)ccc1F)N1CCN(C(=O)C2CC2)CC1 [Olaparib] (first compound max 10 µM, 7x7, partner max 10 µM), for which the Bliss excess in assay [1] was -0.0428; in assay [2], -0.0119; in [3], -0.0412; in [4], -0.0213; in [5] it was -0.0555; in assay [6], -0.0218. Also, the Bliss excess in assay [7] is -0.0305; in [8], -0.102; in assay [9], -0.0099; in the assay with HCC70 (Breast Carcinoma), -0.0292; with EB2 (Burkitt's Lymphoma), 0.0055; in [10] it was -0.0832. Further, the Bliss excess in assay [11] was -0.0871; in the assay on PEO1 (Ovarian Carcinoma) [12], -0.0374; in assay [13], -0.0522; in [14], -0.0307; with WM1552C (Melanoma) it was -0.0418. The “combination Emax” value in assay [15] is 0.149; with PEO1 (Ovarian Carcinoma) [16], 0.153; in [17], 0.195.
